The structures appear in SMILES notation. pEC50: −log10 of the molar value.

In this assay the test system is influenza virus A/H1N1(H275Y) (A/Parma/38/2008). The format is cell-based, influenza virus type A.

`CCOC(=O)C1=CC(OC(CC)CC)C(NC(C)=O)C(NC2(C(=O)O)CC(O)C(NC(C)=O)C(CNC34CC5CC(CC(C5)C3)C4)O2)C1` (centres unmarked) [THE 08/01, Amantadine-C7-Neu5Ac—C16H28N2O4]: the pEC50 was 4.84 and the “antiviral activity in vitro versus influenza virus A/H1N1(H275Y)” value was “comparable to that determined versus A/H1N1”.

What is called pEC50 is the EC50 on a negative log10 scale, so that one unit is a factor of ten.

Source of the values: patent US9284292B2, “Sialochimeric compounds” (THERAPICON S.R.L., priority 2009, dated 2016).
